Test results: ChEMBL document CHEMBL6092143, “Synthesis and evaluation of lipoic acid - donepezil hybrids for Alzheimer's disease using a straightforward strategy” (Bioorg Med Chem Lett, 2024)
The source made the active and inactive calls. No cut-off for these calls is given here.

Legend:
Acetylcholinesterase = Acetylcholinesterase (Homo sapiens, UniProt P22303); test: Inhibition of human erythrocyte AChE using acetylthiocholine iodide as substrate preincubated for 10 mins followed by substrate addition measured after 15 mins by Ellman's method
Sequence of Acetylcholinesterase (P22303 whole entry): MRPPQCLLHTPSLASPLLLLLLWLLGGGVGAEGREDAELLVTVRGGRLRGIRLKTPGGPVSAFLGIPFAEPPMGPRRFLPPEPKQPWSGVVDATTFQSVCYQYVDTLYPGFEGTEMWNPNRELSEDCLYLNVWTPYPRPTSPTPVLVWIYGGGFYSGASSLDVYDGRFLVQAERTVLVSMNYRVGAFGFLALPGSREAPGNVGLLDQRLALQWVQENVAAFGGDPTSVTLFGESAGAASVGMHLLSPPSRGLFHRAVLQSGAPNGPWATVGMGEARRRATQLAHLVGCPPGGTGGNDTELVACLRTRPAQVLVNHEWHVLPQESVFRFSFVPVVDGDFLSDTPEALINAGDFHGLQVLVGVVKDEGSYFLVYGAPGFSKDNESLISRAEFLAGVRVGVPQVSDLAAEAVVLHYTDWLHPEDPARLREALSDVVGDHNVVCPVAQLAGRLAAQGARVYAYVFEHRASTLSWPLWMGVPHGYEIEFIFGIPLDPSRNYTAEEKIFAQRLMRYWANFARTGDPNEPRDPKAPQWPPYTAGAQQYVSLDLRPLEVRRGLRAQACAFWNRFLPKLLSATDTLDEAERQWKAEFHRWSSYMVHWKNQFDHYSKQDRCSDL

Cholinesterase = Cholinesterase (Homo sapiens, UniProt P06276); test: Inhibition of human BChE by Ellman's method
Sequence of Cholinesterase (P06276 whole entry): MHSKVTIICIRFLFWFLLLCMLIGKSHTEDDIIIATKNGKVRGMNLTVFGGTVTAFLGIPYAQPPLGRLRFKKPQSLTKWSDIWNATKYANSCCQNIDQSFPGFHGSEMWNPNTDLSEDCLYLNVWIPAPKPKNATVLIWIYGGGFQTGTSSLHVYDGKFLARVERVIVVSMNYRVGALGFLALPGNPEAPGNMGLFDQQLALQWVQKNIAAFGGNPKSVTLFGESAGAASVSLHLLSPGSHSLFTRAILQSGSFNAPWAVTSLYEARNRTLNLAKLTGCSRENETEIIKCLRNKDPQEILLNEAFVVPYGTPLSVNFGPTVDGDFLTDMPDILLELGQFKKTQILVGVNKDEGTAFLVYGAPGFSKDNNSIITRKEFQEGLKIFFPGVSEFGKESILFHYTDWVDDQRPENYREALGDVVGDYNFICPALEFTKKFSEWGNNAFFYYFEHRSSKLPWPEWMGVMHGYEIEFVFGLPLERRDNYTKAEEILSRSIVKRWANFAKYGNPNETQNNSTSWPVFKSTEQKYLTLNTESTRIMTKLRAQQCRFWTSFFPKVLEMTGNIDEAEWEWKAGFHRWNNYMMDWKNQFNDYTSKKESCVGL

[1] = Antioxidant activity assessed as DPPH radical scavenging activity incubated for 2 hrs under dark condition by absorbance based assay; type: functional
[2] = Antioxidant activity assessed as ABTS radical scavenging activity measured after 6 mins by absorbance based assay; type: functional
[3] = Antioxidant activity assessed as trolox equivalent of ORAC radical scavenging activity incubated for 15 mins by fluorescence based assay; type: functional
HepG2 = test: Cytotoxicity against human HepG2 cells upto 100 uM incubated for 3 hrs by MTT assay; details: hepg2, 3 h
SK-N-BE(2) [4] = test: Cytotoxicity against human SK-N-BE(2) cells upto 100 uM incubated for 3 hrs by MTT assay; type: toxicity, cell-based
SK-N-BE(2) [5] = test: Inhibition of t-BHP-induced ROS production in human SK-N-BE(2) cells at 100 uM incubated for 3 hrs by DCFH-DA probe based analysis; type: functional, cell-based
[6] = Solubility of compound; type: physicochemical

In the case of `O=C1c2cc(O)c(O)cc2CC1CC1CCN(Cc2ccccc2)CC1` (stereo unspecified), the IC50 (Acetylcholinesterase) is reported as 1.81 µM, the IC50 (Cholinesterase) is reported as 246 µM and the EC50 [1] is reported as 29.5 µM. For the same compound, the EC50 [2] was 12.3 µM, the Activity [3] was 2.2 and the Activity (HepG2) was “Non-toxic”. The Activity (SK-N-BE(2) [4]) was “Non-toxic”, the “ROS inhibition activity (qualitative)” value (SK-N-BE(2) [5]) was “Active; Activity Comparable To Vitamin E” and the solubility [6] was “soluble”.
In the case of `O=c1c(O)c(-c2ccc(O)c(O)c2)oc2cc(O)cc(O)c12` [QUERCETIN], the EC50 [1] is reported as 13.8 µM, the EC50 [2] is reported as 3.4 µM and the Activity [3] is reported as 4.
With `COc1cc2c(cc1OC(=O)CCCCC1CCSS1)C(=O)C(CC1CCN(Cc3ccccc3)CC1)C2` (stereo unspecified) the IC50 (Acetylcholinesterase) was 0.0278 µM, the IC50 (Cholinesterase) was 3.99 µM and the EC50 [1] was > 400 µM. The EC50 [2] was > 400 µM, the Activity [3] was < 0.5 and the Activity (HepG2) was “Non-toxic”. For the same compound, the Activity (SK-N-BE(2) [4]) was “Non-toxic”, the “ROS inhibition activity (qualitative)” value (SK-N-BE(2) [5]) was “inactive” and the solubility [6] was “Insoluble”.
`COc1cc2c(cc1O)CC(CC1CCN(Cc3ccccc3)CC1)C2=O` (stereo unspecified) gave an IC50 (Acetylcholinesterase) of 0.773 µM, an IC50 (Cholinesterase) of 35.8 µM and an EC50 [1] of 32.5 µM. It also gave an EC50 [2] of 8.5 µM and an Activity [3] of 2.1.
In the case of `COc1cc2c(cc1OCCCCCC1CCSS1)CC(CC1CCN(Cc3ccccc3)CC1)C2=O` (stereo unspecified), the IC50 (Acetylcholinesterase) is reported as 0.00912 µM, the IC50 (Cholinesterase) is reported as 3.26 µM and the EC50 [1] is reported as > 400 µM. The EC50 [2] was > 400 µM, the Activity [3] was < 0.5 and the Activity (HepG2) was “Non-toxic”. The Activity (SK-N-BE(2) [4]) was “Non-toxic”, the “ROS inhibition activity (qualitative)” value (SK-N-BE(2) [5]) was “Active; More Pronounced Effect Than Lipoic Acid” and the solubility [6] was “Insoluble”.
In the case of `COc1cc2c(cc1OCCCCCC1CCSS1)C(=O)C(CC1CCN(Cc3ccccc3)CC1)C2` (stereo unspecified), the IC50 (Acetylcholinesterase) is reported as 0.00763 µM, the IC50 (Cholinesterase) is reported as 1.48 µM and the EC50 [1] is reported as > 400 µM. For the same compound, the EC50 [2] was > 400 µM, the Activity [3] was < 0.5 and the Activity (HepG2) was “Non-toxic”. The Activity (SK-N-BE(2) [4]) was “Non-toxic” and the “ROS inhibition activity (qualitative)” value (SK-N-BE(2) [5]) was “Active; More Pronounced Effect Than Lipoic Acid”.
In the case of `COc1cc2c(cc1OC)C(=O)C(CC1CCN(Cc3ccccc3)CC1)C2` (stereo unspecified) [DONEPEZIL], the EC50 [1] is reported as > 1000 µM, the EC50 [2] is reported as > 1000 µM and the Activity [3] is reported as < 0.5. For the same compound, the Activity (HepG2) was “Non-toxic”, the Activity (SK-N-BE(2) [4]) was “Non-toxic” and the “ROS inhibition activity (qualitative)” value (SK-N-BE(2) [5]) was “inactive”.
For `COc1cc2c(cc1O)C(=O)C(CC1CCN(Cc3ccccc3)CC1)C2` (stereo unspecified), the IC50 (Acetylcholinesterase) was 0.872 µM, the IC50 (Cholinesterase) was 34.5 µM and the EC50 [1] was > 400 µM. The EC50 [2] was 152 µM, the Activity [3] was 9.4 and the Activity (HepG2) was “Non-toxic”. For the same compound, the Activity (SK-N-BE(2) [4]) was “Non-toxic” and the “ROS inhibition activity (qualitative)” value (SK-N-BE(2) [5]) was “inactive”.
With `O=C(O)CCCC[C@@H]1CCSS1` [THIOCTIC ACID] the Activity (HepG2) was “Non-toxic”, the Activity (SK-N-BE(2) [4]) was “Non-toxic” and the “ROS inhibition activity (qualitative)” value (SK-N-BE(2) [5]) was “Active”.
With `Cc1c(C)c2c(c(C)c1O)CC[C@@](C)(CCC[C@H](C)CCC[C@H](C)CCCC(C)C)O2` [ALPHA-TOCOPHEROL] the EC50 [1] was 27.5 µM, the EC50 [2] was 15.5 µM and the Activity [3] was 1. For the same compound, the Activity (HepG2) was “Non-toxic”, the Activity (SK-N-BE(2) [4]) was “Non-toxic” and the “ROS inhibition activity (qualitative)” value (SK-N-BE(2) [5]) was “Active”.
